# Assay results from patent EP0178388A1, “Quinolinecarboxylic acid derivatives” (KYORIN PHARMACEUTICAL CO., LTD., priority 1984, dated 1986).
# Structures can show the parent of a compound that is named as a salt. Where two headings read alike, the source gives them in different places.
# Legend:
# [1] = test system: Staphylococcus aureus 209 P; experiment: In vitro antibacterial activity, MIC (standard strain); type: cell-based; details: 10^6 cells/ml
# [2] = test system: Alcaligenes faecalis 0114002; experiment: as above; type: cell-based; details: Alcaligenes faecalis 0114002, 10^6 cells/ml
# [3] = test system: Enterobacter cloacae IID 977; experiment: as above; type: cell-based; details: IID977, Enterobacter cloacae IID 977, 10^6 cells/ml
# [4] = test system: Bacillus subtilis PCI 219; experiment: as above; type: cell-based; details: PCI219; Bacillus subtilis PCI 219, 10^6 cells/ml, standard strain; read-out: MIC
# [5] = test system: Streptococcus pyogenes S-8; experiment: as above; type: cell-based; details: S8, Streptococcus pyogenes S-8, 10^6 cells/ml
# [6] = test system: Pseudomonas aeruginosa V-1; experiment: as above; type: cell-based; details: V1; Pseudomonas aeruginosa V-1, 10^6 cells/ml, standard strain; read-out: MIC
# S. faecalis IID 682 = experiment: as above; type: cell-based; details: Enterococcus faecalis, IID682, S. faecalis IID 682, 10^6 cells/ml
# S. pyogenes IID 692 = experiment: as above; type: cell-based; details: Streptococcus pyogenes, IID692, S. pyogenes IID 692, 10^6 cells/ml
# [7] = test system: Citrobacter freundii IID 976; experiment: as above; type: cell-based; details: IID976; Citrobacter freundii IID 976, 10^6 cells/ml, standard strain; read-out: MIC
# K. pneumoniae KY(GN)6445 = experiment: as above; type: cell-based; details: K. pneumoniae KY(GN)6445, 10^6 cells/ml, standard strain
# [8] = test system: Escherichia coli NIHJ JC-2; experiment: as above; type: cell-based; details: NIHJJC2, Escherichia coli NIHJ JC-2, 10^6 cells/ml
# S. epidermidis IID 866 = experiment: as above; type: cell-based; details: Staphylococcus epidermidis, IID866, S. epidermidis IID 866, 10^6 cells/ml
# P. morganii IID 602 = experiment: as above; type: cell-based; details: Morganella morganii, IID602; P. morganii IID 602, 10^6 cells/ml, standard strain; read-out: MIC
# [9] = test system: Proteus vulgaris IFO 3167; experiment: as above; type: cell-based; details: IFO3167; Proteus vulgaris IFO 3167, 10^6 cells/ml, standard strain; read-out: MIC
# [10] = test system: S. aureus IID 670 (Terajima); experiment: as above; type: cell-based; details: Staphylococcus aureus, IID670, 10^6 cells/ml
# S. pneumoniae IID 552 = experiment: as above; type: cell-based; details: Streptococcus pneumoniae, IID552, S. pneumoniae IID 552, 10^6 cells/ml
# [11] = test system: Klebsiella pneumoniae I-220S; experiment: as above; type: cell-based; details: I220S; Klebsiella pneumoniae I-220S, 10^6 cells/ml, standard strain; read-out: MIC
# [12] = test system: Salmonella enteritidis IID 604; experiment: as above; type: cell-based; details: Salmonella enterica; Salmonella enteritidis IID 604, 10^6 cells/ml, standard strain; read-out: MIC
# [13] = test system: Acinetobacter anitratus IID 876; experiment: as above; type: cell-based; details: Acinetobacter calcoaceticus, IID876; Acinetobacter anitratus IID 876, 10^6 cells/ml, standard strain; read-out: MIC
# P. aeruginosa IFO 12689 = experiment: as above; type: cell-based; details: standard strain
# Shigella sonnei IID 969 = experiment: as above; type: cell-based; details: IID969, Shigella sonnei IID 969, 10^6 cells/ml
# Experimental: The in vitro antibacterial activity has been investigated, the minimun inhibitory concentration (MIC) was determined in accordance with the method recommended by Japan Society of Chemotherapy.
# E. coli ATCC 10536 = experiment: as above; type: cell-based; details: Escherichia coli, ATCC10536; E. coli ATCC 10536, 10^6 cells/ml, standard strain; read-out: MIC
# [14] = test system: Serratia marcescens IID 618; experiment: as above; type: cell-based
# [15] = test system: Yersinia enterocolitica IID 981; experiment: as above; type: cell-based; details: IID981; Yersinia enterocolitica IID 981, 10^6 cells/ml, standard strain; read-out: MIC
# P. mirabilis IID 994 = experiment: as above; type: cell-based; details: Proteus mirabilis, IID994, P. mirabilis IID 994, 10^6 cells/ml
# S. pneumoniae S-4288 [16] = experiment: MIC against the infecting strain (Table 2); type: cell-based; details: Streptococcus pneumoniae, S4288; S. pneumoniae S-4288 (Table 2, part 4)
# S. pneumoniae S-4288 [17] = experiment: In vivo antibacterial activity against systemic infection in mice; parameters: species or system mice (ICR-S); details: Streptococcus pneumoniae, S4288; S. pneumoniae S-4288, mice (ICR-S), intraperitoneal infection, oral at 1 hour after infection, challenge dose 2.5 x 10^3 cfu/mouse; read-out: ED50
# Experimental: Experiment 2 In vivo antibacterial activity against systemic infection in mice (ICR-S)
# The infections were produced by intraperitoneal infection of a suspension of the bacterial culture corresponding to the germ studied. The product was administered orally at 1 hour after the infection. The 50% effective dose (ED50) which protects 50% of the animals from death caused by the infection was determined from the relation between dosage and survival rate.
compound,measurement,setting,value
"CC1CN(c2c(F)cc3c(=O)c(C(=O)O)cn(C4CC4)c3c2Cl)CC(C)N1 (stereo not shown) [Example 6, 8-Chloro-1-cyclopropyl-6-fluoro-1,4-dihydro-7-(3,5-dimethyl-1-piperazinyl)-4-oxoquinoline-3-carboxylic acid and its hydrochloride]",MIC,[1]; read-out: MIC,0.2 µg/mL
same,MIC,[2],0.78 µg/mL
same,MIC,[3],0.2 µg/mL
same,MIC,[4],0.05 µg/mL
same,MIC,[5],0.39 µg/mL
same,MIC,[6],1.56 µg/mL
same,MIC,S. faecalis IID 682,0.78 µg/mL
same,MIC,S. pyogenes IID 692,0.78 µg/mL
same,MIC,[7],0.1 µg/mL
same,MIC,"K. pneumoniae KY(GN)6445; Klebsiella pneumoniae, read-out: MIC",0.05 µg/mL
same,MIC,[8],0.05 µg/mL
same,MIC,S. epidermidis IID 866,0.2 µg/mL
same,MIC,P. morganii IID 602,0.2 µg/mL
same,MIC,[9],0.05 µg/mL
same,MIC,[10],0.2 µg/mL
same,MIC,S. pneumoniae IID 552,0.78 µg/mL
same,MIC,[11],0.2 µg/mL
same,MIC,[12],0.1 µg/mL
same,MIC,[13],0.1 µg/mL
same,MIC,"P. aeruginosa IFO 12689; Pseudomonas aeruginosa, IFO12689, P. aeruginosa IFO 12689, 10^6 cells/ml, read-out: MIC",3.13 µg/mL
same,MIC,Shigella sonnei IID 969,0.05 µg/mL
same,MIC,E. coli ATCC 10536,0.025 µg/mL
same,MIC,"[14]; IID618, Serratia marcescens IID 618, 10^6 cells/ml, read-out: MIC",0.2 µg/mL
same,MIC,[15],0.2 µg/mL
same,MIC,P. mirabilis IID 994,0.1 µg/mL
"CC1CN(c2c(F)cc3c(=O)c(C(=O)O)cn(C4CC4)c3c2Cl)CCN1 (stereo not drawn) [Example 7, 8-Chloro-l-cyclopropyl-6-fluoro-l,4-dihydro-7-(3-methyl-l-piperazinyl)-4-oxoquinoline-3-carboxylic acid]",MIC,[1],0.10 µg/mL
same,MIC,S. pneumoniae S-4288 [16],0.78 µg/mL
same,MIC,K. pneumoniae KY(GN)6445,0.025 µg/mL
same,MIC,"P. aeruginosa IFO 12689; P. aeruginosa IFO 12689, 10^6 cells/ml, listed as Exp.7",0.78 µg/mL
same,ED50,S. pneumoniae S-4288 [17],15.6 mg/kg
same,MIC,"[14]; Serratia marcescens IID 618, 10^6 cells/ml",0.05 µg/mL
